# According to US9034862B2, “Compositions and methods for the treatment of cancer” (priority 2011, dated 2015):
# Like-named read-outs stand apart in the source and are kept apart here.
# What was measured:
# [1] = test system: Gaussia luciferase expression in human cancer cells; settings: for Transcription (normalized against unplatinated control): NoPt = 100, cell line not stated
# Procedure: (§1) Vector Construction and Preparation. […] Preparation of Platinated Insertion Strand. […] The suspension was centrifuged. To a solution of 0.2 mM 16-mer oligonucleotide 5′-[…]*[…] The reaction mixture was incubated in the dark at 37° C. overnight. The reaction was stopped when the solution was frozen. […] After purification, the platinated DNA solution was dialyzed against H2O and lyophilized. […] The insertion strand was further analyzed for nucleotide composition by nuclease S1 digestion to confirm the platination site following a protocol published previously (Table 13) (e.g., see J Am Chem Soc 2007, 129, 6370-6371). The platinated and unplatinated DNA strands (40 μM) were phosphorylated by T4 PNK (0.67 U/μL) at 37° C. for 3 h, followed by a phenol/chloroform/isoamyl alcohol extraction to remove the enzyme. The phosphorylated DNA strands were ethanol precipitated and stored in −80° C. at a concentration of 100 pmol/μL.
# (§2) Briefly, a 600 μg quantity of pGLuc8temG plasmid was digested with 30 U Nt.BbvCI at 37° C. for 1 h. The reaction mixture was heated at 80° C. for 20 min to deactivate the enzyme, followed by a phenol/chloroform/isoamyl alcohol extraction to remove the enzyme. The mixture was dialyzed against H2O overnight at 4° C. The plasmid was further digested with 30 U Nt.BspQI at 50° C. for 1 h, and the enzyme was heat-deactivated and removed by a phenol/chloroform/isoamyl alcohol extraction. The nicked plasmid was mixed with 1,000 equiv of complementary DNA strand 5′-[…] (SEQ ID NO: 2) in a buffer of 10 mM Tris-HCl, 2 mM MgCl2, 0.4 M NaCl, pH 7.4, heated at 80° C. for 5 min, and subsequently cooled at 4° C. for 5 min for 10 cycles. […] A 120 μg quantity of the gapped plasmid was annealed with 100 equiv of the insertion strand in a buffer of 10 mM Tris-HCl, 2 mM MgCl2, 0.4 M NaCl, pH 7.4 from 90° C. to 4° C. at −1° C./min in a thermocycler. The platinated plasmid was dialyzed against H2O at 4° C. overnight and further purified by treatment with 30 U BsmBI at 55° C. for 1 h. The closed-circular form of plasmid was purified and concentrated by isopycnic centrifugation, followed by n-butanol extraction and ethanol precipitation. The plasmids were quantitated by a Quant-iT™ PicoGreen® dsDNA Kit from Invitrogen (Carlsbad, Calif.), and stored in −80° C. in TE buffer (10 mM Tris-HCl, 2 mM EDTA, pH 7.4).
# (§3) Transfection of platinated plasmids into mammalian cells was carried out as reported previously (e.g., see ChemBioChem 2011, 12, 1115-1123). A549 and HeLa cells were plated at 2,000 cells per well in 96-well plates. NTera-2 and HT29 cells were plated at 4,000 cells per well in 96-well plates. MCF7 and U2OS cells were plated at 5,000 cells per well in 96-well plates. The cells were allowed to attach and grow for 48 h, and then washed with antibiotic-free culture media right before transfection. Transient transfection of the cells was carried out using Lipofectamine 2000. Briefly, 10 ng of site specifically platinated probes was included in each well. The experiments were performed in quadruplicate. The probes were diluted in OptiMEM, and Lipofectamine was diluted in OptiMEM. The two solutions were combined and incubated for 20 min. The transfection mixture was delivered into each well, and the cells were incubated for 2 h. The cells were washed with antibiotic-free culture media to remove the transfection mixture. A 100 μL volume of fresh, antibiotic-free media was added into each well to start the transcription assay. […]
# [2] = test system: human breast carcinoma MCF7; test: MTT assay, MCF7; format: cell-based
# Procedure: Human colon carcinoma HT29, human breast carcinoma MCF7, human bone sarcoma U2OS, human prostate carcinoma PC3, and human cervix carcinoma HeLa cells were obtained from the ATCC. A2780/CP70 cisplatin-resistant human ovarian cancer cells were kindly provided by Dr. Stephen B. Howell (Moores UCSD Cancer Center) and the human lung carcinoma cell lines A549 and normal lung fibroblast MRC5 by David E. Root (Whitehead Institute for Biomedical Research). Cells were incubated at 37° C. in 5% CO2 and grown in RPMI (HT29, A2780/CP70, and PC3) or DMEM (A549, MRC5, HeLa, MCF7, and U2OS) medium supplemented with 10% fetal bovine serum and 1% penicillin/streptomycin. Cells were passed every 3 to 4 days and restarted from a frozen stock upon reaching pass number 20.
# Solutions of the platinum compounds were freshly prepared in sterile PBS before use and their concentrations quantitated by atomic absorption spectroscopy. […] The cells were then treated with 20 μL of 3-(4,5-dimethylthiazol-2-yl)-2,5-diphenyltetrazolium bromide (MTT) (5 mg/mL in PBS) and incubated for 4 h. The medium was removed, 100 μL of DMSO was added to the cells, and the absorbance of the purple formazan was recorded at 560 nm using a BioTek Synergy HT multi-detection microplate plate reader. Each condition was performed in triplicate and three independent experiments were carried out for each cell line.
# [3] = test system: Gaussia luciferase expression in A549 cells; settings: ratio of recovery of transcription level vs. time
# Procedure: as §1, §2, §3
# [4] = test system: Gaussia luciferase expression in MCF7 cells; settings: ratio of recovery of transcription level vs. time
# Procedure: as §1, §2, §3
# [5] = test system: Gaussia luciferase expression in HeLa cells; settings: ratio of recovery of transcription level vs. time
# Procedure: as §1, §2, §3
# [6] = test system: Gaussia luciferase expression in U2OS cells; settings: ratio of recovery of transcription level vs. time
# Procedure: as §1, §2, §3
# [7] = test system: Gaussia luciferase expression in HT29 cells; settings: ratio of recovery of transcription level vs. time
# Procedure: as §1, §2, §3
# [8] = equimolar N-AcMet, 37° C.
# Procedure: NMR spectra were collected on a Varian 500 spectrometer equipped with a triple-resonance broadband inverse probe and a variable temperature unit. The 1-D ^1H NMR kinetic studies were performed in duplicate as a standard time-arrayed experiment using a variable delayed list. Incremented 1-D spectra were processed in exactly the same way and signals of aromatic amine ligands from platinum compounds were integrated. The relative concentrations of the platinum compound at each time point were calculated from peak integrals. […] Reactions of platinum compounds with N-AcMet were performed in NMR tubes containing 2 mM of the Pt complex and 2 mM (1 equiv) of N-AcMet in 10 mM PBS buffer, D2O, pH*7.4 at 37° C. […] Deuterated 3-(trimethylsilyl)propionic acid sodium salt (TMS-PFASS) was used as an internal standard. The pH* values are the measured pH values without correction for the effect of deuterium on the electrode.
# [9] = test system: human lung carcinoma A549; test: MTT assay, A549; format: cell-based
# Procedure: Solutions of the platinum compounds were freshly prepared in sterile PBS before use and their concentrations quantitated by atomic absorption spectroscopy. Cells were seeded on a 96-well plate (1200 cells per well for cancer cells and 1800 cells per well for the normal lung fibroblasts) in 100 μL RPMI or DMEM media, and incubated for 24 h. […] The cells were then treated with 20 μL of 3-(4,5-dimethylthiazol-2-yl)-2,5-diphenyltetrazolium bromide (MTT) (5 mg/mL in PBS) and incubated for 4 h. The medium was removed, 100 μL of DMSO was added to the cells, and the absorbance of the purple formazan was recorded at 560 nm using a BioTek Synergy HT multi-detection microplate plate reader. Each condition was performed in triplicate and three independent experiments were carried out for each cell line.
# Human prostate carcinoma (PC3) and human cervix carcinoma (HeLa) cells were obtained from the ATCC. The human lung carcinoma cell line A549 was kindly provided by David E. Root (Whitehead Institute for Biomedical Research). Cells were incubated at 37° C. in 5% CO2 and grown in RPMI (PC3) or DMEM (A549 and HeLa) medium supplemented with 10% fetal bovine serum and 1% penicillin/streptomycin. Cells were passaged every 3 to 4 days and restarted from the frozen stock upon reaching passage number 20.
# Solutions of the platinum agents were freshly prepared in sterile PBS before use and the platinum content was quantitated by AAS. Cells were seeded on 96 well plates (1200 cells per well) in 100 μL RPMI or DMEM media\ and incubated for 24 hours. […] The cells were then treated with 20 μL of 3-(4,5-dimethylthiazol-2-yl)-2,5-diphenyltetrazolium bromide (MTT) (5 mg/mL in PBS) and incubated for 4 h. The medium was removed, 100 μL of DMSO were added to the cells, and the absorbance of the purple formazan was recorded at 570 nm using a BioTek Synergy HT multi-detection microplate plate reader. For each cell line, three independent experiments were carried out in triplicate.
# pGLuc plasmid = test: Platination of pGLuc plasmid; format: biochemical
# Procedure: The resulting mixtures were dialyzed (molecular weight cut-off 3.5 kDa) against ddH2O overnight at 4° C. with five changes of ddH2O. The rb values (bound Pt/nucleotide) were determined by UV/Vis and atomic absorption spectroscopy.
# In one embodiment, the ratio of bound platinum per plasmid was determined by measuring the Pt concentration by atomic absorption spectroscopy and the DNA concentration by UV/Vis spectroscopy.
substance,measurement,setting,value
cis-[Pt(NH3)2(phenanthridine)Cl]NO3 [phenanthriplatin],Transcription (normalized against unplatinated control),[1]; 16 hours,26
same,Transcription (normalized against unplatinated control),[1]; 24 hours,32
same,Transcription (normalized against unplatinated control),[1]; 32 hours,36
same,Transcription (normalized against unplatinated control),[1]; 44 hours,41
same,transcription inhibition in live mammalian cancer cells,[1]; site-specific cis-[Pt(NH3)2(phen)]2+-dG lesion,strong transcription inhibitor
same,IC50,"[2]; Table 3, MCF7 Breast, 72-h incubation",940 ± 90 nM
same,IC50,"[2]; Table 14, MCF7, MTT assay",1140 ± 20 nM
same,recovery rate of transcription (S),[3],0.263
same,recovery rate of transcription (S),[4],0.337
same,recovery rate of transcription (S),[5],0.434
same,recovery rate of transcription (S),[6],0.805
same,recovery rate of transcription (S),[7],0.884
same,"second-order rate constant, reaction with N-AcMet",[8],0.00944 M⁻¹ s⁻¹
same,IC50,"[9]; Table 3, A549 Lung, 72-h incubation",220 ± 10 nM
same,IC50,"[9]; Table 4, A549 human lung carcinoma, 72 h incubation",170 ± 2 nM
same,IC50,"[9]; Table 5, A549, 72-h incubation",220 ± 10 nM
same,IC50,"[9]; Table 11 (Example 3), A549 Lung, 72 h",220 ± 6 nM
same,IC50,"[9]; Table 14, A549, MTT assay",170 ± 10 nM
same,Pt per plasmid,"pGLuc plasmid; rf 0.0008, 16 h at 37° C.",12.12 Pt per plasmid
same,rb (bound Pt/nucleotide),"pGLuc plasmid; rf 0.0008, 16 h at 37° C.",0.0015
same,Pt per plasmid,"pGLuc plasmid; rf 0.0019, 16 h at 37° C.",15.42 Pt per plasmid
same,rb (bound Pt/nucleotide),"pGLuc plasmid; rf 0.0019, 16 h at 37° C.",0.0019
same,Pt per plasmid,"pGLuc plasmid; rf 0.0029, 16 h at 37° C.",24.28 Pt per plasmid
same,rb (bound Pt/nucleotide),"pGLuc plasmid; rf 0.0029, 16 h at 37° C.",0.0030
same,Pt per plasmid,"pGLuc plasmid; rf 0.0060, 16 h at 37° C.",42.80 Pt per plasmid
same,rb (bound Pt/nucleotide),"pGLuc plasmid; rf 0.0060, 16 h at 37° C.",0.0053
